The test system of data set [1] is DOHH-2. The data set can be described thus: Up regulation of HSP70 expression in human DOHH-2 cells at 0.5 to 8 uM measured after 24 hrs by Western blot analysis. The class given is functional, cell-based. Conditions: dose 0.5-8 µM. A general note: A western blot detects proteins with antibodies after separation by electrophoresis.
A further data set deals with HEK-293T. Put plainly: Cytotoxicity against HEK293T cells up to 20 uM measured after 24 hrs. The class given is toxicity, cell-based. Conditions: human.
Data set [2] addresses T1, Peroxiredoxin-6 (Homo sapiens) (UniProt P30041).
T1 sequence (whole entry): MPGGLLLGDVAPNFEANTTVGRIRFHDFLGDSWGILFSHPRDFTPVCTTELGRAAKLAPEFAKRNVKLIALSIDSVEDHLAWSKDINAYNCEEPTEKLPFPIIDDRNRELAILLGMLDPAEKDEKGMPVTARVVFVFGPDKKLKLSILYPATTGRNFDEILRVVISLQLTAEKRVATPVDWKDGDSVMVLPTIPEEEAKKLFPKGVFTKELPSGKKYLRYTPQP
The data set can be described thus: Binding affinity to PRDX6 in human DOHH-2 cells by MS analysis. The class given is cell-based.

Data set [3] concerns the target T2, Protein disulfide-isomerase A3 (Homo sapiens) (UniProt P30101).
T2 sequence (whole entry): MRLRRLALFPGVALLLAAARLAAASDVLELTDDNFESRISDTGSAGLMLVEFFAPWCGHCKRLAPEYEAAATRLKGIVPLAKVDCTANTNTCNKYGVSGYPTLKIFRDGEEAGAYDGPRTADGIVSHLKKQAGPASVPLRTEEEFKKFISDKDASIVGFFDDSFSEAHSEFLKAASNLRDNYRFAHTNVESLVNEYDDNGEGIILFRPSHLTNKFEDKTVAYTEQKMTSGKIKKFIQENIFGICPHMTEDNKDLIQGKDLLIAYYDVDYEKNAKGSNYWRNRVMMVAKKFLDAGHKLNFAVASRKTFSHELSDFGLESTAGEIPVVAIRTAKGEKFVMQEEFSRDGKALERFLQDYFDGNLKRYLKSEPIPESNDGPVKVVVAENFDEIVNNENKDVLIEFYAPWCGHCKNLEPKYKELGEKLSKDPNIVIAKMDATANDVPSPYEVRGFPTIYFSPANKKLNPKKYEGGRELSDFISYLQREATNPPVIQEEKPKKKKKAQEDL
The data set can be described thus: Binding affinity to PDIA3 in human DOHH-2 cells measured after 6 hrs by pull-down assay. The class given is cell-based. Conditions: DDE = dose-dependent effect.

A further data set deals with MDA-MB-453. The data set can be described thus: Cytotoxicity against human MDA-MB-453 cells measured after 72 hrs. The class given is functional, cell-based.
Data set [4] has as its system DOHH-2. Put plainly: Induction of apoptosis in human DOHH-2 cells assessed as increase in cleaved PARP expression at 0.5 to 8 uM measured after 24 hrs by Western blot analysis. The class given is functional, cell-based. As to conditions: dose 0.5-8 µM.
The subject of data set [5] is DOHH-2. Put plainly: Induction of apoptosis in human DOHH-2 cells assessed as increase in cleaved caspase-3 expression at 0.5 to 8 uM measured after 24 hrs by Western blot analysis. As to conditions: dose 0.5-8 µM. The class given is functional, cell-based.
For data set [6], the target named is T2, Protein disulfide-isomerase A3 (Homo sapiens). The data set can be described thus: Binding affinity to PDIA3 in human DOHH-2 cells by MS analysis. The class given is cell-based.
For data set [7], the system named is DOHH-2. Put plainly: Cytotoxicity against human DOHH-2 cells measured after 72 hrs. The class given is functional, cell-based.
Data set [8] addresses Glutathione S-transferase 3, mitochondrial (Homo sapiens) (UniProt O14880). Put plainly: Binding affinity to MGST3 in human DOHH-2 cells measured after 6 hrs by pull-down assay. As to conditions: DDE = dose-dependent effect. The class given is cell-based.
In the next data set the target is T3, Plastin-2 (Homo sapiens) (UniProt P13796).
T3 sequence (whole entry): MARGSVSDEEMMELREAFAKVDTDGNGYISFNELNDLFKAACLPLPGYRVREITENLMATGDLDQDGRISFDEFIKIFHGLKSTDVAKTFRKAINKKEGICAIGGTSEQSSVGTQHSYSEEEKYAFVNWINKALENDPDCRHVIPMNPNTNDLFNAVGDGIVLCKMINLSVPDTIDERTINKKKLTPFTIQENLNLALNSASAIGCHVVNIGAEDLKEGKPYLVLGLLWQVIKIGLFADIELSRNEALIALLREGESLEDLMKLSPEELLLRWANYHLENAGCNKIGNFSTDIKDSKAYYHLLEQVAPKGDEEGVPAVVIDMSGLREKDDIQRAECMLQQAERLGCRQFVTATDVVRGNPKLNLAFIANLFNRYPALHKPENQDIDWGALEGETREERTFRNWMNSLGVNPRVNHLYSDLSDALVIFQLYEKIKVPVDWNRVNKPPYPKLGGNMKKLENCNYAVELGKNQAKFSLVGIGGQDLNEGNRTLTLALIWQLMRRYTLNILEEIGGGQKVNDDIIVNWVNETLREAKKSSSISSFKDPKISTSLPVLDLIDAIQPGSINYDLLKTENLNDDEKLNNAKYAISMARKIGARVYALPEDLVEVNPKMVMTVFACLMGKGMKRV
Put plainly: Binding affinity to plastin-2 in human MDA-MB-453 cells measured after 6 hrs by pull-down assay. The class given is cell-based. Conditions: dose <= 20.0 µM, DDE = dose-dependent effect.

Data set [9] has as its target T1, Peroxiredoxin-6 (Homo sapiens). Put plainly: Binding affinity to PRDX6 in human MDA-MB-453 cells measured after 6 hrs by pull-down assay. The class given is cell-based. As to conditions: dose <= 20.0 µM, DDE = dose-dependent effect.
Data set [10] has as its target T4, Protein disulfide-isomerase A6 (Homo sapiens) (UniProt Q15084).
T4 sequence (whole entry): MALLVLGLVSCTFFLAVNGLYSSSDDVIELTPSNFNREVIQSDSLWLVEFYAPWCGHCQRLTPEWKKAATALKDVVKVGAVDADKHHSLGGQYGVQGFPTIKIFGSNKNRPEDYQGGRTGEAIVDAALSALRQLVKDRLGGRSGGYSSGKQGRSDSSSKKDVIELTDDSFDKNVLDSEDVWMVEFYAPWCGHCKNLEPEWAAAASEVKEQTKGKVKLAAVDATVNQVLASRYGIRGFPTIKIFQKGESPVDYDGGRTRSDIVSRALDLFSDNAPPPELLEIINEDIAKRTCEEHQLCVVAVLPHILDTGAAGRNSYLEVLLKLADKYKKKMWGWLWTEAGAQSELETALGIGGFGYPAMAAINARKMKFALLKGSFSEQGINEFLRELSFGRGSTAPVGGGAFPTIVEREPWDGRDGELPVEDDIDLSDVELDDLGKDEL
The data set can be described thus: Binding affinity to PDIA6 in human DOHH-2 cells by MS analysis. The class given is cell-based.

In data set [11] the target is T5, Glutathione S-transferase omega-1 (Homo sapiens) (UniProt P78417).
T5 sequence (whole entry): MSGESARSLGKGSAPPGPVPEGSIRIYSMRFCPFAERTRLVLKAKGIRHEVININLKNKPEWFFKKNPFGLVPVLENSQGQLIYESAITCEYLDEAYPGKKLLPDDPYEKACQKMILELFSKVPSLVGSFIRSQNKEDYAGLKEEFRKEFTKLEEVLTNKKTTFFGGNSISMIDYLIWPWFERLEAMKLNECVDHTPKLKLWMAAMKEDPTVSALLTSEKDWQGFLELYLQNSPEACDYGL
The data set can be described thus: Binding affinity to GSTO1 in human DOHH-2 cells measured after 6 hrs by pull-down assay. The class given is cell-based. As to conditions: DDE = dose-dependent effect.

Data set [12] has as its target Glutathione S-transferase P (Homo sapiens) (UniProt P09211). Put plainly: Binding affinity to GSTP1 in human DOHH-2 cells by MS analysis. The class given is cell-based.
The target of data set [13] is Glutathione S-transferase 3, mitochondrial (Homo sapiens) (UniProt O14880). The data set can be described thus: Binding affinity to MGST3 in human MDA-MB-453 cells measured after 6 hrs by pull-down assay. The class given is cell-based. As to conditions: dose <= 20.0 µM, DDE = dose-dependent effect.
Glutathione S-transferase 3, mitochondrial (Homo sapiens), sequence (O14880 whole entry): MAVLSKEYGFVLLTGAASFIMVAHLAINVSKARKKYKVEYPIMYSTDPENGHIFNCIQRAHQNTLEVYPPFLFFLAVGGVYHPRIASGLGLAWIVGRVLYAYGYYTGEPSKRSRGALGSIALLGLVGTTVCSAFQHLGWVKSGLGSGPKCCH

Active and inactive are the calls of the source. The rule behind the calls is not given here.

Glutathione S-transferase P (Homo sapiens), sequence (P09211 2-210 limits assumed): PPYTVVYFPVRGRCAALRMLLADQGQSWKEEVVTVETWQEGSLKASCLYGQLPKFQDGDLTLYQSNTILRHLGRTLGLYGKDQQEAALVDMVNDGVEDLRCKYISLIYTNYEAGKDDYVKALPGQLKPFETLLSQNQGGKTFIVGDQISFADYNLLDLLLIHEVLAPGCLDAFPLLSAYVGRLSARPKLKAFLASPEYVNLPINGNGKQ

Consider `C#Cc1cccc(C#CS(N)(=O)=O)c1`, for which the result (with DOHH-2 [1]; in data set [2]; with MDA-MB-453; in the data set with DOHH-2 [4]; in the data set on DOHH-2 [5]; in data set [6]) was Active. Besides, the result (in the data set with DOHH-2 [7]; in data set [10]; in [12]) was Active. Further, the Activity result was “Non-Toxic” in the data set on HEK-293T; “Dde” in data set [3]; “Dde” in data set [8]; “Dde” on Plastin-2 (Homo sapiens); “Dde” in data set [9]; “Dde” in data set [11]. The Activity result in data set [13] was “Dde”.

The record behind these values is ChEMBL document CHEMBL5143564, “PES derivative PESA is a potent tool to globally profile cellular targets of PES” (Bioorg Med Chem Lett, 2022).
